ChEMBL document CHEMBL3045702, “Cytotoxic lipid esters from Peucedanum ledebourielloides” (Med Chem Res, 2010)
≈ marks a conversion by molar mass, not a printed value.

Columns and labels:
Format in all cases: functional, cell-based
HL-60 = test: Cytotoxicity against Homo sapiens (human) HL60 cells by MTT assay
SGC-7901 = test: Cytotoxicity against Homo sapiens (human) SGC7901 cells by MTT assay
HT-29 = test: Cytotoxicity against Homo sapiens (human) HT-29 cells by MTT assay

`CCCCCCCCCCCCCCCC(=O)OCC(CO[C@@H]1O[C@H](CO)[C@@H](O)[C@H](O)[C@H]1O)OC(=O)CCCCCCCCCCCCCCC` (some centres undefined) gave an IC50 (HL-60) of 27.7 µg/mL (≈ 37.9 µM), an IC50 (SGC-7901) of 4.9 µg/mL (≈ 6.7 µM) and an IC50 (HT-29) of 0.21 µg/mL (≈ 0.287 µM).

Compound `CCCCCCCCCCCCCCCC(=O)OCCCCCCOC(=O)CCCCCCCCCCCCCCC` has an IC50 (HL-60) of 0.49 µg/mL (≈ 0.824 µM), an IC50 (SGC-7901) of 1.6 µg/mL (≈ 2.69 µM) and an IC50 (HT-29) of 34.2 µg/mL (≈ 57.5 µM).

Compound `O=c1[nH]cc(F)c(=O)[nH]1` [FLUOROURACIL] has an IC50 (HL-60) of 25.4 µg/mL (≈ 195 µM), an IC50 (SGC-7901) of 0.58 µg/mL (≈ 4.46 µM) and an IC50 (HT-29) of 10.3 µg/mL (≈ 78.9 µM).
